Drawing on ChEMBL document CHEMBL4715815, “Design, synthesis and biological evaluation of 7H-pyrrolo[2,3-d]pyrimidin-4-amine derivatives as selective Btk inhibitors with improved pharmacokinetic properties for the treatment of rheumatoid arthritis” (Eur J Med Chem, 2018), this text covers solubility, IC50 and Activity for 17 molecules.

In brackets after ≈: the same amount, converted by molar mass. Activity calls are given as the source filed them. The calls are words filed in the database; no cut-off is given here. Some results are limits rather than exact numbers.

A short description of data set [1]: Aqueous solubility of compound at 1 mg. The note with it: aqueous medium.
A further data set relates to HEK293. Description: Cytotoxicity against human HEK293 cells assessed as reduction in cell viability incubated for 72 hrs by MTT assay. Format: ADME, cell-based. As to conditions: HEK293, 72 h.
In a further data set the test system is THP-1. Description: Cytotoxicity against human THP-1 cells assessed as reduction in cell viability incubated for 72 hrs by MTT assay. The class given is ADME, cell-based. The note with it: THP-1, 72 h. (In general: Formazan colour is commonly taken as a measure of viable cells.)
The next data set has as its system L02. Description: Cytotoxicity against human L02 cells assessed as reduction in cell viability incubated for 72 hrs by MTT assay. The class given is ADME, cell-based. The note with it: L02, 72 h.
A further data set has as its system Mus musculus. Description: Antiarthritic activity in DBA/1J mouse model of collagen-induced arthritis at 20 mg/kg, po administered for 30 days and measured on day 30. The class given is functional, organism-based. The note with it: time 30.0 day.
The nature of data set [2]: Inhibition of recombinant human PI3K using PIP2 as substrate incubate for 15 mins by LANCE assay. In general terms: Time-resolved FRET reads energy transfer from a long-lived donor to a nearby acceptor.
Data set [3] deals with Tyrosine-protein kinase BTK (Homo sapiens, UniProt Q06187). Description: Inhibition of BTK (unknown origin) by caliper mobility shift assay.
Tyrosine-protein kinase BTK, sequence (Q06187 whole entry): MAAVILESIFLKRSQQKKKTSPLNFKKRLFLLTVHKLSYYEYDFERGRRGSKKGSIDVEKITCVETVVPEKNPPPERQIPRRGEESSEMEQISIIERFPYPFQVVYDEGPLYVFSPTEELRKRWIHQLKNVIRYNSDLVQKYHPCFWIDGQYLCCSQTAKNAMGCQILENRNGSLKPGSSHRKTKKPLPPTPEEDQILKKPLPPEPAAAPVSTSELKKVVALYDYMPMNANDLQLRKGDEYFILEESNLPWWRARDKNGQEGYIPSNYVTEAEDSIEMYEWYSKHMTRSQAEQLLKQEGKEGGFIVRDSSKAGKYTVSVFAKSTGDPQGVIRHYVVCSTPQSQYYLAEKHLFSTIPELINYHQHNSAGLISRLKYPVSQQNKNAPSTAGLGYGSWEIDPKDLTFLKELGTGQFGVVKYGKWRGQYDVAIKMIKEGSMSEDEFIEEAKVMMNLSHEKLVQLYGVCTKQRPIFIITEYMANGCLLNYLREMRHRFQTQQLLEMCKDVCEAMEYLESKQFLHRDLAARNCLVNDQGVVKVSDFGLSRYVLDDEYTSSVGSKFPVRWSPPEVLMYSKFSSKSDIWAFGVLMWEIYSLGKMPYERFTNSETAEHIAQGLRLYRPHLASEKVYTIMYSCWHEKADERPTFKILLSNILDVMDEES

One may read the solubility as how much of the substance goes into solution per volume. Low readings indicate a poorly soluble substance, high ones a readily soluble substance. As a reminder, the IC50 is the concentration that gives 50% inhibition. Take `C=CC(=O)N1CCC(CCn2cc(-c3ccc(Oc4ccccc4)cc3)c3c(N)ncnc32)CC1`: the solubility in data set [1] is < 10 µg/mL. Besides, the figures for the IC50 in the data set with HEK293, in the data set with THP-1 and in the data set on L02 were 10200 nM, 18.9 µM and 15.2 µM, respectively.
For `C=CC(=O)N1CCC(CCn2cc(-c3ccc4c(c3)OCO4)c3c(N)ncnc32)CC1`, the solubility in data set [1] was < 100 µg/mL.
For the molecule `C=CC(=O)N1CCC[C@@H](n2nc(-c3ccc(Oc4ccccc4)cc3)c3c(N)ncnc32)C1` [IBRUTINIB], the solubility in data set [1] was < 10 µg/mL. Besides, the IC50 in the data set with HEK293 is 19300 nM; in the data set on THP-1, 20.1 µM; in the data set with L02 it was 17.4 µM; in data set [2], > 10 µM. Also, the outcome in the data set with Mus musculus was Active.
Consider `C=CC(=O)N1CCC(Cn2cc(-c3ccc(Oc4ccccc4)cc3)c3c(N)ncnc32)CC1`, for which the IC50 in data set [3] turned out to be 6.09 nM; with HEK293, 13300 nM; in the data set on THP-1, 16.7 µM; with L02, 16 µM. In addition, the solubility in data set [1] is < 10 µg/mL.
Take `C=CS(=O)(=O)N1CCC(Cn2nc(-c3ccc(Oc4ccccc4)cc3)c3c(N)ncnc32)CC1`: in data set [1], the solubility is < 10 µg/mL. Further, the IC50 was 1600 nM with HEK293, 18.3 µM in the data set with THP-1 and 19.1 µM in the data set with L02.
For `C=CC(=O)N1CCCC(Cn2cc(-c3ccc(Oc4ccccc4)cc3)c3c(N)ncnc32)C1` (single isomer, unassigned; form 1), the solubility in data set [1] was < 10 µg/mL. The IC50 in the data set on HEK293 came out at 2900 nM; in the data set with THP-1 it was 8.8 µM; with L02 it was 11.7 µM.
In the case of `C=CS(=O)(=O)N1CCC(Cn2cc(-c3ccc(Oc4ccccc4)cc3)c3c(N)ncnc32)CC1`, the solubility in data set [1] was < 10 µg/mL. Also, the half-maximal inhibitory concentration (IC50) in the data set with HEK293 is 2700 nM; with THP-1, 3.3 µM; in the data set on L02, 3.2 µM.
For `CN(C)C/C=C/C(=O)N1CCC(Cn2cc(-c3ccc(Oc4ccccc4)cc3)c3c(N)ncnc32)CC1`, in that order: < 10 µg/mL, 4800 nM, 3.2 µM and 6.6 µM.
`C=CS(=O)(=O)N1CCC(Cn2nc(-c3ccc4c(c3)OCO4)c3c(N)ncnc32)CC1`: the solubility in data set [1] was 100 µg/mL (≈ 226 µM). The IC50 with HEK293 was 2800 nM; with THP-1 it was 14.4 µM; with L02, 10.1 µM.
As to `C=CC(=O)N1CCC(Cn2cc(-c3ccc(OCc4ccccc4)cc3)c3c(N)ncnc32)CC1`, the IC50 in data set [3] was determined as 77 nM. Also, in data set [1], the solubility was < 10 µg/mL.
As for `CN(C)C/C=C/C(=O)N1CCC(Cn2cc(-c3ccc4c(c3)OCO4)c3c(N)ncnc32)CC1`, the solubility in data set [1] is < 100 µg/mL.
As for `C=CC(=O)N1CCC(Cn2nc(-c3ccc(Oc4ccccc4)cc3)c3c(N)ncnc32)CC1`, the solubility in data set [1] was < 10 µg/mL. Also, the IC50 in the data set with HEK293 came out at 11200 nM; with THP-1 it was 15.7 µM; in the data set with L02 it was 10.9 µM.
Take `C=CC(=O)N1CCCC(Cn2cc(-c3ccc4c(c3)OCO4)c3c(N)ncnc32)C1` (single isomer, unassigned; form 1): the solubility in data set [1] came to 100 µg/mL (≈ 247 µM).
In data set [1], `C=CC(=O)N1CCC(Cn2nc(-c3ccc4c(c3)OCO4)c3c(N)ncnc32)CC1` yielded a solubility of 100 µg/mL (≈ 246 µM).
Take `C=CS(=O)(=O)N1CCC(Cn2cc(-c3ccc4c(c3)OCO4)c3c(N)ncnc32)CC1`: in data set [1], the solubility was determined as 100 µg/mL (≈ 226 µM). Also, the IC50 in the data set on HEK293 turned out to be 2500 nM; in the data set on THP-1, 3.7 µM; in the data set with L02, 3.2 µM.
For `C=CC(=O)N1CCCC(Cn2cc(-c3ccc(Oc4ccccc4)cc3)c3c(N)ncnc32)C1` (single isomer, unassigned; form 2), in that order: < 10 µg/mL, 1300 nM, 10.7 µM and 14.2 µM.
As for `C=CC(=O)N1CCCC(Cn2cc(-c3ccc4c(c3)OCO4)c3c(N)ncnc32)C1` (single isomer, unassigned; form 2), the concentration in solution in data set [1] (solubility) was 100 µg/mL (≈ 247 µM).
